From paper PMC4767422, “Molecular insights into the enzymatic diversity of flavin‐trafficking protein (Ftp; formerly ApbE) in flavoprotein biogenesis in the bacterial periplasm” (MicrobiologyOpen, 2015)
Numbering of substitutions follows the chain as printed.

Legend:
Ftp_Ec [1] = molecular target: T1, Ftp_Ec (Escherichia coli, UniProt P0AB85, Y79N); experiment: crystal structure, […]-1.[…] A; also inhibits FAD pyrophosphatase activity; type: binding; conditions: two Mg2+ bound; active site
T1 construct: gene apbE; recombinant, ligand-free preparation as in Deka et al. 2013a; signal peptide removed; crystal model residues about 12-341
T1 sequence (P0AB85 21-351 Y79N): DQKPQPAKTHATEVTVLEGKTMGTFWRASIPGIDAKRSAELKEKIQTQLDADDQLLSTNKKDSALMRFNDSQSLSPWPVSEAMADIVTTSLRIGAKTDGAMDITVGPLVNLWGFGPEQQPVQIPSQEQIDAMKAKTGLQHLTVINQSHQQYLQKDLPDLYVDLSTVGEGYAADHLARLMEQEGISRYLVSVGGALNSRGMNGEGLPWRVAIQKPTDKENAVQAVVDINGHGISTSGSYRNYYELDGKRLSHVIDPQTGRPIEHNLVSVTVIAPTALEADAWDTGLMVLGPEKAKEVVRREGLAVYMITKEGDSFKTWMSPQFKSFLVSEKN

Ftp_Ec [2] = molecular target: T2, Ftp_Ec (Escherichia coli, UniProt P0AB85); experiment: fluorescence decrease on FAD binding; flavinylation gel; type: biochemical; conditions: binds FAD without hydrolysis; FMN donor to RnfG_Ec with 5 mM MgCl2, pH 7.5
T2 construct: gene apbE; recombinant, ligand-free preparation as in Deka et al. 2013a; signal peptide removed; crystal model residues about 12-341
T2 sequence (P0AB85 21-351): T1 sequence (P0AB85 21-351 Y79N) with N59Y

Ftp_Hd = molecular target: T3, Ftp_Hd ([Haemophilus] ducreyi, UniProt Q7VNU3); experiment: UV-visible spectrum of protein as isolated; type: binding; conditions: co-purified flavin, nonstoichiometric; buffer A, pH 7.5
T3 construct: gene apbE; residues 17-343, signal peptide and acylated Cys removed, N-terminal TEV-cleavable His6 tag (pSpeedET), E. coli
T3 sequence (Q7VNU3 16-342): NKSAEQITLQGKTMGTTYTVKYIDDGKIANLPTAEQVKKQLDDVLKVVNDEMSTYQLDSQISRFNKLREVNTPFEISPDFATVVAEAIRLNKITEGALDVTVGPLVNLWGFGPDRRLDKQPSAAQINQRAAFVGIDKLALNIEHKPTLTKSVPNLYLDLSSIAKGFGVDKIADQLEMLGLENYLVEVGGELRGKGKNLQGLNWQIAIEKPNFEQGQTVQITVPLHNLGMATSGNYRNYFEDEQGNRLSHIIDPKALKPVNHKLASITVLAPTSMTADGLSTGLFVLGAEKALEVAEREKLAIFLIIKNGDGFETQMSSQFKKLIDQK

Ftp_Td = molecular target: T4, Ftp_Td (Treponema denticola, UniProt Q73JG1); experiment: FAD pyrophosphatase assay, FMN fluorescence; type: biochemical; conditions: 10 uM FAD, 5 mM MgCl2, pH 7.5; single turnover
T4 construct: gene TDE_2614; residues 28-372, signal peptide and acylated Cys removed, N-terminal TEV-cleavable His6 tag (pSpeedET), E. coli
T4 sequence (Q73JG1 28-371): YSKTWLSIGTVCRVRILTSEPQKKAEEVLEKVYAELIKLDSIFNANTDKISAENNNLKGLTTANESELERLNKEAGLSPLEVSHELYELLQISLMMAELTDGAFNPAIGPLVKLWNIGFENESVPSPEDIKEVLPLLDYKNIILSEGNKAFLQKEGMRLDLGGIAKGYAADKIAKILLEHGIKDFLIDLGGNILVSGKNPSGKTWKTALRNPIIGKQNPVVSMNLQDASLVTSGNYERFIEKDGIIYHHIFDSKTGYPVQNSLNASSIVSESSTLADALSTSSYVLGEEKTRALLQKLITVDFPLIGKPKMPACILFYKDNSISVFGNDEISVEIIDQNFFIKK

Ftp_Ab = molecular target: T5, Ftp_Ab (Alcanivorax borkumensis, UniProt Q0VQR2); experiment: UV-visible spectrum of protein as isolated; type: binding; conditions: co-purified flavin, nonstoichiometric; buffer A, pH 7.5
T5 construct: gene apbE; residues 21-338, signal peptide and acylated Cys removed, N-terminal TEV-cleavable His6 tag (pSpeedET), E. coli
T5 sequence (Q0VQR2 20-337): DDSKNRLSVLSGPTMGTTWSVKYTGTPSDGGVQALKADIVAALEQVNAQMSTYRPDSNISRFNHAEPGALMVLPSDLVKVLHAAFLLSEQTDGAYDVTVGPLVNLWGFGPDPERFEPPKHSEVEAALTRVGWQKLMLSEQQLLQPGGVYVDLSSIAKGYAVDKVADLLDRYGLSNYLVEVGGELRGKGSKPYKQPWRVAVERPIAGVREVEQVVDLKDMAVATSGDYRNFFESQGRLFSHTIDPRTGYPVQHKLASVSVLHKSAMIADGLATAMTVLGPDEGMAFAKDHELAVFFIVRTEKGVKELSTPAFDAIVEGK

Ftp_Lm = molecular target: T6, Ftp_Lm (Listeria monocytogenes, UniProt A0A0H3GJF7); experiment: FAD pyrophosphatase assay, FMN fluorescence; type: biochemical; conditions: 10 uM FAD, 5 mM MgCl2, pH 7.5; single turnover
T6 construct: gene LMRG_02181; residues 22-361, signal peptide and acylated Cys removed, N-terminal TEV-cleavable His6 tag (pSpeedET), E. coli
T6 sequence (A0A0H3GJF7 21-360): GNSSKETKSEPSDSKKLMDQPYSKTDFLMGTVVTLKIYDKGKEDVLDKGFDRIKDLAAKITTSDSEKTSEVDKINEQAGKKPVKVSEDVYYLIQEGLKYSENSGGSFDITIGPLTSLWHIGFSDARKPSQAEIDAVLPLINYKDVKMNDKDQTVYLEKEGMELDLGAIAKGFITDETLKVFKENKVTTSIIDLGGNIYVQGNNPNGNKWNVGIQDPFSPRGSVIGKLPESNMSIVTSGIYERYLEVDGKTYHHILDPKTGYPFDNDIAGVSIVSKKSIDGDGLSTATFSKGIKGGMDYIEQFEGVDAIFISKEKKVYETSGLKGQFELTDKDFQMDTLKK

Ftp_Ef = molecular target: T7, Ftp_Ef (Enterococcus faecalis, UniProt Q82Z24); experiment: FAD pyrophosphatase assay, FMN fluorescence; type: biochemical; conditions: 10 uM FAD, 5 mM MgCl2, pH 7.5; single turnover
T7 construct: gene EF_3255; residues 21-356, signal peptide and acylated Cys removed, N-terminal TEV-cleavable His6 tag (pSpeedET), E. coli
T7 sequence (Q82Z24 22-355): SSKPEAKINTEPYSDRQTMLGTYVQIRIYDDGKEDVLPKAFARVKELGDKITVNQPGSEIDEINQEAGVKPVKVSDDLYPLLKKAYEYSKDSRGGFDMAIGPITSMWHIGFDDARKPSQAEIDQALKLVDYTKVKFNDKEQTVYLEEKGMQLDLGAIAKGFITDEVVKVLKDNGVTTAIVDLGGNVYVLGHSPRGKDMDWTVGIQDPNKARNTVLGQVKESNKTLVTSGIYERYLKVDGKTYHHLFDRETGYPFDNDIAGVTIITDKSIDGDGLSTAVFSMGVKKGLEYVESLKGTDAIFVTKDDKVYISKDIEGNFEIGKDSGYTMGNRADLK

NqrC_So = molecular target: T8, NqrC_So (Shewanella oneidensis, UniProt Q8EID8); experiment: crystal structure, […] A; type: binding; conditions: covalent phosphoester-threonyl-FMN at T225, formed in vitro by Ftp_So from FAD and Mg2+
T8 construct: gene nqrC; residues 32-265, without N-terminal membrane anchor; recloned into pProEx HTb; His tag cut with TEV after flavinylation
T8 sequence (Q8EID8 32-264): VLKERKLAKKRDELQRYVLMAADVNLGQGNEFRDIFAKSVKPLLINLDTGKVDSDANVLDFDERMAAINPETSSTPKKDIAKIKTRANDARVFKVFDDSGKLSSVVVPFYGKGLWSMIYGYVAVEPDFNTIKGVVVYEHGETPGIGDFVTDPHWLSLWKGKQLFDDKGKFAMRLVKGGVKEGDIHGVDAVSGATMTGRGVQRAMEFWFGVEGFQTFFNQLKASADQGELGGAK

Nc1ncnc2c1ncn2[C@@H]1O[C@H](COP(=O)(O)OP(=O)(O)O)[C@@H](O)[C@H]1O [ADP]
crystal structure, 1.85-1.90 A; also inhibits FAD pyrophosphatase activity (Ftp_Ec [1]): we obtained a crystal structure of the ADP complex with two metals bound

Cc1cc2nc3c(=O)[nH]c(=O)nc-3n(C[C@H](O)[C@H](O)[C@H](O)COP(=O)(O)OP(=O)(O)OC[C@H]3O[C@@H](n4cnc5c(N)ncnc54)[C@H](O)[C@@H]3O)c2cc1C [FAD]
fluorescence decrease on FAD binding; flavinylation gel (Ftp_Ec [2]): wild‐type Ftp_Ec (in orange) binds FAD as demonstrated by a decrease in the emission fluorescence | UV-visible spectrum of protein as isolated (Ftp_Hd): purified as yellow, flavin‐bound forms (holoproteins) | FAD pyrophosphatase assay, FMN fluorescence (Ftp_Td): all nonyellow Ftps showed single‐turnover kinetics of FAD pyrophosphatase activity | UV-visible spectrum of protein as isolated (Ftp_Ab): purified as yellow, flavin‐bound forms (holoproteins) | FAD pyrophosphatase assay, FMN fluorescence (Ftp_Lm): all nonyellow Ftps showed single‐turnover kinetics of FAD pyrophosphatase activity | FAD pyrophosphatase assay, FMN fluorescence (Ftp_Ef): all nonyellow Ftps showed single‐turnover kinetics of FAD pyrophosphatase activity

Cc1cc2nc3c(=O)[nH]c(=O)nc-3n(C[C@H](O)[C@H](O)[C@H](O)COP(=O)(O)O)c2cc1C [FMN]
crystal structure, 1.76 A (NqrC_So): The modified threonine (T225) lies at the N‐terminal end of the C‐terminal alpha helix
